Experimental data published in ChEMBL document CHEMBL1201862, “PubChem BioAssay data set” (2004).
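Results reflect a 48-hour exposure of cells in 96-well plates to compound at five concentrations. The concentration for 50% growth inhibition is given as GI50.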 Calls of active or inactive are those of the source. No stated cut-off is given here; in the data, active = GI50 up to about 1.1 µM and inactive = higher.

Experiments:
Test in all cases: NCI-60 cell line screen, 48 h
[1] = test system: SK-OV-3
[2] = test system: SN12C
[3] = test system: NCI-H522
[4] = test system: NCI-H226
[5] = test system: SNB-75
[6] = test system: OVCAR-5
[7] = test system: SNB-19
[8] = test system: DU-145
[9] = test system: Malme-3M
[10] = test system: ACHN
[11] = test system: SF-539
[12] = test system: IGROV-1
[13] = test system: HT-29
[14] = test system: SK-MEL-5
[15] = test system: HOP-92
[16] = test system: 786-0
[17] = test system: UACC-257
[18] = test system: U-251
[19] = test system: SK-MEL-28
[20] = test system: SR

| Structure (SMILES) | GI50 [1] | GI50 [2] | GI50 [3] | GI50 [4] | GI50 [5] | GI50 [6] | GI50 [7] | GI50 [8] | GI50 [9] | GI50 [10] | GI50 [11] | GI50 [12] | GI50 [13] | GI50 [14] | GI50 [15] | GI50 [16] | GI50 [17] | GI50 [18] | GI50 [19] | GI50 [20] |
| --- | --- | --- | --- | --- | --- | --- | --- | --- | --- | --- | --- | --- | --- | --- | --- | --- | --- | --- | --- | --- |
| N#CCCSC(=S)C1CCCC1=N (stereo not drawn) | > 100 µM (inactive) | > 100 µM (inactive) | > 100 µM (inactive) | > 100 µM (inactive) | 3.88 µM (inactive) | > 100 µM (inactive) | > 100 µM (inactive) | > 100 µM (inactive) | > 100 µM (inactive) | > 100 µM (inactive) | > 100 µM (inactive) | > 100 µM (inactive) | > 100 µM (inactive) | > 100 µM (inactive) | > 100 µM (inactive) | > 100 µM (inactive) | > 100 µM (inactive) | > 100 µM (inactive) | > 100 µM (inactive) | – |
| CC(C#N)NCc1ccc(C(C)NC(C)C#N)cc1 (stereo not drawn) | > 100 µM (inactive) | > 100 µM (inactive) | > 100 µM (inactive) | > 100 µM (inactive) | – | > 100 µM (inactive) | > 100 µM (inactive) | > 100 µM (inactive) | 96.6 µM (inactive) | > 100 µM (inactive) | > 100 µM (inactive) | > 100 µM (inactive) | > 100 µM (inactive) | > 100 µM (inactive) | > 100 µM (inactive) | > 100 µM (inactive) | > 100 µM (inactive) | > 100 µM (inactive) | > 100 µM (inactive) | – |
| O=C(NNC(=S)NC1CCCCC1)C12CC3CC(CC(C3)C1)C2 | > 100 µM (inactive) | > 100 µM (inactive) | > 100 µM (inactive) | > 100 µM (inactive) | 52.2 µM (inactive) | > 100 µM (inactive) | > 100 µM (inactive) | > 100 µM (inactive) | > 100 µM (inactive) | > 100 µM (inactive) | > 100 µM (inactive) | > 100 µM (inactive) | > 100 µM (inactive) | > 100 µM (inactive) | – | 61.8 µM (inactive) | > 100 µM (inactive) | > 100 µM (inactive) | > 100 µM (inactive) | 0.637 µM (active) |
| CC(C)/C(Cl)=N\OC(=O)Nc1ccc(F)cc1 | 17.8 µM (inactive) | 5.87 µM (inactive) | 1.52 µM (inactive) | 18.2 µM (inactive) | – | 14.6 µM (inactive) | 19.2 µM (inactive) | 16.3 µM (inactive) | 1.95 µM (inactive) | 3.55 µM (inactive) | 16.9 µM (inactive) | 14.8 µM (inactive) | 2.04 µM (inactive) | 13.6 µM (inactive) | – | 5.18 µM (inactive) | 14.3 µM (inactive) | 15.6 µM (inactive) | 5.81 µM (inactive) | 1.68 µM (inactive) |
| CN(CCCn1ccnc1[N+](=O)[O-])CCCn1ccnc1[N+](=O)[O-] | > 100 µM (inactive) | > 100 µM (inactive) | > 100 µM (inactive) | > 100 µM (inactive) | > 100 µM (inactive) | > 100 µM (inactive) | – | > 100 µM (inactive) | > 100 µM (inactive) | > 100 µM (inactive) | > 100 µM (inactive) | > 100 µM (inactive) | > 100 µM (inactive) | > 100 µM (inactive) | – | > 100 µM (inactive) | > 100 µM (inactive) | > 100 µM (inactive) | > 100 µM (inactive) | > 100 µM (inactive) |
| Cc1cc2c(cc1Cl)Sc1n[nH]c(=O)n1S2(=O)=O | > 100 µM (inactive) | > 100 µM (inactive) | 87.5 µM (inactive) | > 100 µM (inactive) | > 100 µM (inactive) | > 100 µM (inactive) | > 100 µM (inactive) | > 100 µM (inactive) | 40.6 µM (inactive) | > 100 µM (inactive) | > 100 µM (inactive) | > 100 µM (inactive) | > 100 µM (inactive) | 35.8 µM (inactive) | 54.3 µM (inactive) | > 100 µM (inactive) | > 100 µM (inactive) | > 100 µM (inactive) | > 100 µM (inactive) | – |
| COc1ccc(NC(=S)Nc2c(C)n(C)n(-c3ccccc3)c2=O)cc1 | > 100 µM (inactive) | – | > 100 µM (inactive) | > 100 µM (inactive) | > 100 µM (inactive) | > 100 µM (inactive) | > 100 µM (inactive) | > 100 µM (inactive) | > 100 µM (inactive) | > 100 µM (inactive) | > 100 µM (inactive) | > 100 µM (inactive) | > 100 µM (inactive) | > 100 µM (inactive) | > 100 µM (inactive) | > 100 µM (inactive) | > 100 µM (inactive) | > 100 µM (inactive) | > 100 µM (inactive) | – |
| C[C@@H](C1CC[C@H]2[C@@H]3[C@@H]4O[C@@H]4[C@@]4(O)CC=CC(=O)[C@]4(C)[C@H]3C[C@H](O)[C@]12C)[C@H]1C[C@]2(C)O[C@]2(C)C(=O)O1 (stereo partly drawn) | > 100 µM (inactive) | > 100 µM (inactive) | > 100 µM (inactive) | > 100 µM (inactive) | > 100 µM (inactive) | > 100 µM (inactive) | > 100 µM (inactive) | > 100 µM (inactive) | > 100 µM (inactive) | > 100 µM (inactive) | > 100 µM (inactive) | > 100 µM (inactive) | > 100 µM (inactive) | > 100 µM (inactive) | > 100 µM (inactive) | > 100 µM (inactive) | > 100 µM (inactive) | > 100 µM (inactive) | > 100 µM (inactive) | – |
